Measurements from US11691961B2, “Molecule having pesticidal utility, and compositions, and processes, related thereto” (CORTEVA AGRISCIENCE LLC, priority 2018, dated 2023).

What was measured:
[1] = system: Green Peach Aphid (Myzus persicae, MYZUPE); test: Bioassay 1: Green Peach Aphid foliar spray on cabbage seedlings; type: in vivo; conditions: for Myzus persicae Mean LC50 PPM: infested cabbage seedlings sprayed until runoff, live aphids counted three days after treatment, Abbott-corrected percent control, mean of replicates; for Myzus persicae % (percent increase in the Mean LC50 required): relative to F1: ((LC50 - LC50 of F1)/LC50 of F1)*100
Method: (§1) F1, CE1, CE2, CE3, and CE4 (2 mg each) were each dissolved in 2 mL of acetone/methanol (1:1) solvent, forming stock solutions of 1000 ppm for each test molecule. The stock solutions were diluted 5× with 0.025% Tween® 20 in water to obtain test solutions at 200 ppm for each test molecule. Subsequent 4× dilutions, in water containing 0.025% Tween® 20 and 10% acetone/methanol (1:1), were used to generate the desired concentrations for dose responses. A minimum of 5 concentrations of each test molecule were used for each assay.
Bioassay 1: Green Peach Aphid (Myzus persicae, MYZUPE) (“GPA”).
Test solutions of Formula One and the Comparative Examples, prepared as described above, were tested against GPA using the following procedure.
Cabbage seedlings grown in 3-inch pots, with 2-3 small (3-5 cm) true leaves, were used as test substrate. The seedlings were infested with 20-50 GPA (wingless adult and nymph stages) one day prior to chemical application. Four pots with individual seedlings were used for each treatment. A hand-held aspirator-type sprayer was used for spraying a solution to both sides of […] leaves until runoff. Reference plants (solvent check) were sprayed with the diluent only (0.025% Tween® 20 and 10% acetone/methanol (1:1) in water). Treated plants were held in a holding room for three days at approximately 25° C. and ambient relative humidity (RH) prior to grading. Evaluation was conducted by counting the number of live aphids per plant under a microscope three days after treatment. Percent control was measured using Abbott's correction formula (W. S. Abbott, “A Method of Computing the Effectiveness of an Insecticide” J. Econ. Entomol. 18 (1925), pp. 265-267) as follows:
(§2) [formula] where X=No. of live aphids on solvent check plants and Y=No. of live aphids on treated plants. Bioassay 2: Sweet potato Whitefly (Bemisia tabaci, BEMITA) (“SPW”).

[2] = system: Sweet potato Whitefly (Bemisia tabaci, BEMITA); test: Bioassay 2: Sweet potato Whitefly foliar spray on cotton seedlings; type: in vivo; conditions: for Bemisia tabaci Mean LC50 PPM: cotton seedlings sprayed at crawler emergence, 2-3 instar nymphs counted 7-9 days after treatment, Abbott-corrected percent control, mean of replicates; for Bemisia tabaci % (percent increase in the Mean LC50 required): relative to F1: ((LC50 - LC50 of F1)/LC50 of F1)*100
Method: as §1, §2
Test solutions of Formula One and the Comparative Examples, prepared as described above, were tested against SPW using the following procedure.
Cotton seedlings grown in 3-inch pots, pruned so that only one true leaf remained, were used as test substrate. Adult B. tabaci were allowed to colonize these plants and lay eggs for 24 hours after which all adults were removed from the plants using compressed air. Plants were monitored for egg development and, when crawler emergence was underway (>25% emergence based on visual examination using a microscope), the plants were sprayed using the test solutions and methods described above for green peach aphids (GPA). Treated plants were held in a holding room at approximately 25° C. and ambient relative humidity (RH) prior to grading. Evaluation was conducted by counting the number of developed 2-3 instar nymphs per plant under a microscope 7-9 days after treatment. Percent control was measured using Abbott's correction formula (W. S. Abbott, “A Method of Computing the Effectiveness of an Insecticide” J. Econ. Entomol. 18 (1925), pp. 265-267) as follows:
[formula] where X=No. of live nymphs on solvent check plants and Y=No. of live nymphs on treated plants. Analysis of Bioassays

## CC(C(=O)N(C)c1cn(-c2cccnc2)nc1Cl)S(C)(=O)=O (centres unmarked) [CE1, N-(3-chloro-1-(pyridin-3-yl)-1H-pyrazol-4-yl)-N-methyl-2-(methylsulfonyl)propanamide]
[1]
  Myzus persicae Mean LC50 PPM: 0.29 PPM
[2]
  Bemisia tabaci Mean LC50 PPM: 5.61 PPM
  Bemisia tabaci % (percent increase in the Mean LC50 required): 15%

## CN(C(=O)CS(C)(=O)=O)c1cn(-c2cccnc2)nc1Cl [CE2, N-(3-chloro-1-(pyridin-3-yl)-1H-pyrazol-4-yl)-N-methyl-2-(methylsulfonyl)acetamide]
[1]
  Myzus persicae Mean LC50 PPM: 0.52 PPM
[2]
  Bemisia tabaci Mean LC50 PPM: 21.01 PPM

## CS(=O)(=O)CC(=O)Nc1cn(-c2cccnc2)nc1Cl [CE3, N-(3-chloro-1-(pyridin-3-yl)-1H-pyrazol-4-yl)-2-(methylsulfonyl)acetamide]
[1]
  Myzus persicae Mean LC50 PPM: 0.05 PPM
  Myzus persicae % (percent increase in the Mean LC50 required): −29%
[2]
  Bemisia tabaci Mean LC50 PPM: 25.35 PPM

## CC(C)(C(=O)Nc1cn(-c2cccnc2)nc1Cl)S(C)(=O)=O [CE4, N-(3-chloro-1-(pyridin-3-yl)-1H-pyrazol-4-yl)-2-methyl-2-(methylsulfonyl)propanamide]
[1]
  Myzus persicae Mean LC50 PPM: 2.17 PPM
  Myzus persicae % (percent increase in the Mean LC50 required): 3000%
[2]
  Bemisia tabaci Mean LC50 PPM: 9.72 PPM
  Bemisia tabaci % (percent increase in the Mean LC50 required): 100%

## CC(C(=O)Nc1cn(-c2cccnc2)nc1Cl)S(C)(=O)=O (centres unmarked) [Molecule F1, N-(3-chloro-1-(pyridin-3-yl)-1H-pyrazol-4-yl)-2-(methylsulfonyl)propanamide]
[1]
  Myzus persicae Mean LC50 PPM: 0.07 PPM
[2]
  Bemisia tabaci Mean LC50 PPM: 4.87 PPM
